Data on one compound can be found in patent US6713051B2, “Antiperspirant or deodorant compositions” (Unilever Home & Personal Care USA division of Conopco, Inc., priority 2001, dated 2004).

The experiment concerns the target T1, human PPARα (Homo sapiens, UniProt Q07869).
T1 construct: The coding region of a human PPARα cDNA was inserted downstream of the CMV promoter; expressed in transfected cells; host or cells: Cos-7 cells, transient transfection (pcDNA3.1(−)-PPARα, pRSV-RXRα, 3xPPRE-TK-luc reporter, pRL-TK)
T1 sequence (Q07869 1-468): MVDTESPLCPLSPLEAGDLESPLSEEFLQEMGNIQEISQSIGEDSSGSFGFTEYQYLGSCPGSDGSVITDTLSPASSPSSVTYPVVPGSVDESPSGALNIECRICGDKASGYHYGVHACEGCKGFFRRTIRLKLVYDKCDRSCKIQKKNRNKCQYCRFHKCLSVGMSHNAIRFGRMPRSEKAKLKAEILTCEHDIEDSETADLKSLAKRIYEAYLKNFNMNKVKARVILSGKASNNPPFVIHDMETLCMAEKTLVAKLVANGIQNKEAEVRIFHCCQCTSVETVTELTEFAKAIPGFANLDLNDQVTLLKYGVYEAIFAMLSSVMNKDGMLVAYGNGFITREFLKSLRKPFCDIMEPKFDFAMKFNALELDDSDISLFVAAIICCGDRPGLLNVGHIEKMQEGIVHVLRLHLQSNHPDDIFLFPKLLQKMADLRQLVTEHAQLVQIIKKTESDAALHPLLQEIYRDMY
T1 sequence (P19793 1-462 partner): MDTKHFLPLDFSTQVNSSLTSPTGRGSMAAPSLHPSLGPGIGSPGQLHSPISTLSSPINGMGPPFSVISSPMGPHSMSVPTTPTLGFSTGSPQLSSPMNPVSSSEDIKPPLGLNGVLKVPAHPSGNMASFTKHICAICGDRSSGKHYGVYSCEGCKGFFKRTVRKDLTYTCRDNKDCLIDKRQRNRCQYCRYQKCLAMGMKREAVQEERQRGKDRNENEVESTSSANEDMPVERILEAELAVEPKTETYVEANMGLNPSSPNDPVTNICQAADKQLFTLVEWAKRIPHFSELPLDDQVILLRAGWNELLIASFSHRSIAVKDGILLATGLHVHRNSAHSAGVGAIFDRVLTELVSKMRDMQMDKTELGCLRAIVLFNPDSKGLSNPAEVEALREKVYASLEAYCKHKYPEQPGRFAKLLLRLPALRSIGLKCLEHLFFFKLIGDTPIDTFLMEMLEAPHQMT
Description: PPARα reporter gene assay (firefly luciferase, transiently transfected Cos-7 cells). The format is cell-based. Background: A reporter such as luciferase makes a cellular process visible.

Take `CC\C=C/C=C/C=C/C=C\CCCCCCCC(=O)O` [cis parinaric acid, cis-parinaric acid]: the “Result at (lowest administration level at which super or MS activity was achieved)” value is 25 μm. Moreover, under “class reached”, the “Result (superior activity class achieved)” value was “super (superior activity [super] (50% higher—at least 2.25 times PPARα activation))”. For the same compound, the “Pass at (lowest tested administration level at which the test material passed)” value (pass = activation greater than oleic acid at 100 μM, commonly >1.57 times vehicle control, 24 h treatment) is 10 μm.
